This note sets out measurements from patent US20160251403A1, “PEPTIDE COMBINATIONS AND USES THEREOF IN TREATING DUST MITE ALLERGY” (ALK-ABELLO A/S, priority 2013, published 2016).

No end group written: not given here.

For data set [1], the target named is DRB1_0101 (Homo sapiens, UniProt P01903+P01911, A100R/D57E/F55L/F60I/F76Y/I96L/L162R/M171V/P40L/Q125E/R42F/V115G/Y59C). As to the kind of experiment: Competitive MHC class II binding assay, DRB1_0101.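 Note: competition against a radiolabeled probe peptide (0.1–1 nM) for purified HLA class II protein over 2–4 days, bound counts read after antibody capture, six competitor levels across 100,000-fold.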
The target of data set [2] is DRB1_0401 (Homo sapiens, UniProt P01903+P01911, A100K/A169T/F76Y/I96L/K127E/L162R/M171V/N62H/P40V/Q125Y/R42H/S133A/S149N/S66Y/V115G/V209L/W38E). As to the kind of experiment: Competitive MHC class II binding assay, DRB1_0401.
The target in data set [3] is DRB1_0701 (Homo sapiens, UniProt P01903+P01911, A100R/A102G/A103Q/D57E/D86V/E43K/F76Y/K127E/L162R/M171V/P40G/Q125H/Q99D/R33Q/R42Y/R54Q/S133A/S66F/T210M/V115G/Y107V/Y59L/Y89S). Nature of the data set: Competitive MHC class II binding assay, DRB1_0701.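 Note: displacement of a radiolabeled reference peptide from purified HLA class II protein, with complex-bound radioactivity counted after 2–4 days of incubation and six concentrations spanning a 100,000-fold range.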
For data set [4], the target named is DRB1_0901 (Homo sapiens, UniProt P01903+P01911, A100R/A103E/D57H/D86V/F55Y/F60I/F76Y/I96F/K127E/L162R/M171V/P40D/Q125H/Q99R/R33Q/R42F/S133A/S66N/T210M/V115G/W38K/Y107V/Y59G/Y89S). Nature of the data set: Competitive MHC class II binding assay, DRB1_0901.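 Note: displacement of a radiolabeled probe peptide from purified HLA class II protein, bound counts read after two to four days incubation, six concentrations spanning 100,000-fold, unlabeled probe as reference.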
Data set [5] deals with DRB1_1302 (Homo sapiens, UniProt P01903+P01911, A100E/A169T/K41T/L162R/M171V/P40S/Q125H/Q178H/Q39Y/Q99D/R42S/S66N/T262R/V115G/W38E/Y61H). As to the kind of experiment: Competitive MHC class II binding assay, DRB1_1302.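 Note: purified HLA class II protein incubated two to four days with a radiolabeled reference binder and test peptide at six concentrations over a 100,000-fold range, complex-bound radioactivity counted.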
Data set [6] concerns the target DQA10501-DQB10201 (Homo sapiens, UniProt P01909+P01920, A45G/A70V/D89A/E106A/E77G/E98D/H199R/L107V/N214S/P84L/P87L/T103K/T109R/T172A/T60S/V78E/V99I/Y58L/Y62S/Y69I/Y79F). Nature of the data set: Competitive MHC class II binding assay, DQA10501-DQB10201.
Data set [7] concerns the target DQA10501-DQB10301 (Homo sapiens, UniProt P01909+P01920). Nature of the data set: Competitive MHC class II binding assay, DQA10501-DQB10301.
For data set [8], the target named is DQA10301-DQB10302 (Homo sapiens, UniProt P01909+P01920, A209T/A45G/C70Q/D89A/DUP78-78/E183D/E77G/F237L/G63E/H199R/I129T/K197E/L178F/L74F/L98V/Q57E/Q76R/S185I/S97I/T217I/T49S/V73L/Y58L). As to the kind of experiment: Competitive MHC class II binding assay, DQA10301-DQB10302.
Data set [9] has as its target DQA10102-DQB10602. Nature of the data set: Competitive MHC class II binding assay, DQA10102-DQB10602. Conditions: read-out: HLA-DQA10102-DQB10602; positive binding at cutoff 1000 nM.
Data set [10] deals with DRB1_0802 (Homo sapiens, UniProt P01903+P01911, A100R/A103L/A169T/F76Y/H45Y/I96F/K41T/L162R/M171V/P40S/Q125H/Q178H/Q39Y/Q99D/R218S/R42G/S66Y/V115G/W38E). Nature of the data set: Competitive MHC class II binding assay, DRB1_0802.
The target of data set [11] is DRB3_0101 (Homo sapiens, UniProt P01903+P79483). As to the kind of experiment: Competitive MHC class II binding assay, DRB3_0101.
Data set [12] addresses DRB4_0101 (Homo sapiens, UniProt P01903+P13762, G164S). Nature of the data set: Competitive MHC class II binding assay, DRB4_0101.
Data set [13] can be described thus: Solubility of peptides in aqueous solutions at different pH (visual inspection, OD, HPLC). Format: physicochemical. Put shortly:
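Peptides at about 0.25 mM or 1 mM final in water, pH 2 HCl, or pH 5, 7 or 9 buffers with 140 mM NaCl, optionally with about 20% DMSO. Turbidity and particles checked visually before and after centrifugation and by OD. RP-HPLC peak height or area was compared with peptide dissolved in acetonitrile or DMSO.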

As to GSGSSWAFSGVAATESAYLA [pep-044], the IC50 in data set [1], in data set [2], in data set [3], in data set [4], in [5] and in [6] was < 1000 nM throughout. Further, the IC50 in data set [7], in [8] and in [9] was < 1000 nM each time.

Consider LVGDNGVLASAIATHAKIRD [pep-110], for which the IC50 in [1], in data set [2], in data set [10], in data set [4], in data set [5] and in [11] was < 1000 nM in each case. In addition, the IC50 in data set [12], in [7] and in data set [9] was < 1000 nM throughout.

HAVNIVGYSNAQGVDYWIVR [pep-058]: the “Solubility at pH 7 (visual inspection)” value in data set [13] is recorded as “Slight turbid”. Further, the IC50 in data set [2], in data set [3], in data set [10], in data set [4], in [5] and in [11] was < 1000 nM throughout. Moreover, the IC50 in data set [12], in data set [6], in data set [7] and in data set [9] was < 1000 nM throughout.

Take `CC[C@H](C)[C@H](NC(=O)CNC(=O)[C@@H](NC(=O)[C@@H](NC(=O)[C@@H](NC(=O)[C@H](C)NC(=O)[C@@H](NC(=O)[C@H](C)NC(=O)[C@H](CO)NC(=O)[C@H](Cc1c[nH]cn1)NC(=O)[C@@H](NC(=O)[C@H](CCC(N)=O)NC(=O)[C@H](C)NC(=O)[C@H](CC(C)C)NC(=O)[C@H](C)NC(=O)[C@H](CCC(=O)O)NC(=O)[C@@H](N)CCCNC(=N)N)[C@@H](C)O)[C@@H](C)CC)C(C)C)[C@@H](C)CC)[C@@H](C)CC)C(=O)N[C@@H](CCCCN)C(=O)N[C@@H](CC(=O)O)C(=O)N[C@@H](CC(C)C)C(=O)N[C@@H](CC(=O)O)C(=O)N[C@@H](C)C(=O)O` [pep-130]: the “Solubility at pH 7 (visual inspection)” value in data set [13] is “Slight turbid”. Also, the IC50 in data set [1], in [3], in data set [10], in data set [4], in data set [5] and in [12] was < 1000 nM in each case. Moreover, the IC50 in data set [6], in data set [7], in [8] and in [9] was < 1000 nM throughout.

For LVKGQQYDIKYTWNVPKIAPK [pep-131], in [13] (Table 11a, evaluated by visual inspection), the “Solubility at pH 7” value was “Clear”. The IC50 in data set [1], in data set [3], in data set [10], in [4] and in [5] was < 1000 nM in each case.

As for DNGYGYFAANIDLMMIEE [pep-010], the IC50 in data set [1], in data set [2], in [3], in data set [10], in [4] and in [5] was < 1000 nM each time. Besides, the IC50 in data set [11], in data set [12], in [6], in data set [7], in data set [8] and in [9] was < 1000 nM throughout. For the same molecule, the “binding to HLA Class II allele DRB1_1302” value in data set [5] (as shown in Table 16a) is recorded as “binds to at least the same alleles as peptide 041”. The “binding to HLA Class II allele DRB3_0101” value in data set [11] (as shown in Table 16a) is recorded as “binds to at least the same alleles as peptide 041”. Also, the “binding to HLA Class II allele DQA10501-DQB10201” value in data set [6] (as shown in Table 16a) was “binds to at least the same alleles as peptide 041”.
